ChEMBL document CHEMBL2439966, “Development of novel ferulic acid derivatives as potent histone deacetylase inhibitors” (Bioorg Med Chem, 2013)

How the values were obtained:
Histone deacetylase = assay: Inhibition of HDAC in human HeLa cell nuclear extracts using Color de LysTM after 30 mins; format: protein assay
MDA-MB-231 = assay: cells; format: functional, cell-based; conditions: Homo sapiens, MDA-MB-231, 48 h
Description: Growth inhibition of human MDA-MB-231 cells after 48 hrs by MTT assay

MCF7 = assay: cells; format: functional, cell-based; conditions: Homo sapiens, MCF7, 48 h
Description: Growth inhibition of human MCF7 cells after 48 hrs by MTT assay

HeLa = assay: cells; format: functional, cell-based; conditions: Homo sapiens, 48 h
Description: Growth inhibition of human HeLa cells after 48 hrs by MTT assay

Compound	IC50 (Histone deacetylase)	IC50 (MDA-MB-231)	IC50 (MCF7)	IC50 (HeLa)
COc1cc(/C=C/C(=O)Nc2ccccc2N)ccc1OCC(=O)Nc1cc(Br)cc(C(F)(F)F)c1	24.2 µM			
COc1cc(/C=C/C(=O)Nc2ccc(C)cc2N)ccc1OCC(=O)Nc1ccc(F)c(Cl)c1	15.4 µM			
COc1cc(/C=C/C(=O)NO)ccc1OCC(=O)Nc1ccccc1F	3.94 µM	8.3 µM	> 100 µM	11.1 µM
COc1cc(/C=C/C(=O)NO)ccc1OCC(=O)Nc1cccc(C(F)(F)F)c1	12.5 µM			
COc1cc(/C=C/C(=O)Nc2ccccc2N)ccc1OCC(=O)Nc1cc(C(F)(F)F)cc(C(F)(F)F)c1	7.8 µM	25.3 µM	43.1 µM	20.8 µM
COc1cc(/C=C/C(=O)Nc2ccccc2N)ccc1OCC(=O)Nc1cccc(F)c1	2.82 µM	> 100 µM	> 100 µM	28.1 µM
COc1cc(/C=C/C(=O)NO)ccc1OCC(=O)Nc1cc(Br)cc(C(F)(F)F)c1	67.8 µM			
COc1cc(/C=C/C(=O)NO)ccc1OCC(=O)Nc1ccc(Br)cc1	8.43 µM	0.76 µM	73.6 µM	> 100 µM
COc1cc(/C=C/C(=O)NO)ccc1OCC(=O)Nc1cccc(F)c1	9.47 µM	1.45 µM	39.5 µM	34.5 µM
COc1cc(/C=C/C(=O)NO)ccc1OCC(=O)Nc1ccc(Cl)c(Cl)c1	43 µM			
COc1cc(/C=C/C(=O)Nc2ccc(C)cc2N)ccc1OCC(=O)Nc1ccccc1F	11.6 µM			
COc1cc(/C=C/C(=O)Nc2ccccc2N)ccc1OCC(=O)Nc1ccccc1F	73.7 µM			
COc1cc(/C=C/C(=O)Nc2ccccc2N)ccc1OCC(=O)Nc1ccc(F)c(Cl)c1	11.5 µM			

Continued, values first:

IC50 (Histone deacetylase)	IC50 (MDA-MB-231)	IC50 (MCF7)	IC50 (HeLa)	Compound
49.3 µM				COc1cc(/C=C/C(=O)NO)ccc1OCC(=O)Nc1ccc(F)c(Cl)c1
16.4 µM				COc1cc(/C=C/C(=O)Nc2ccc(C)cc2N)ccc1OCC(=O)Nc1ccc(Br)cc1
64.5 µM				COc1cc(/C=C/C(=O)Nc2ccc(C)cc2N)ccc1OCC(=O)Nc1ccc(Cl)c(Cl)c1
7.43 µM	> 100 µM	92.1 µM	84.3 µM	COc1cc(/C=C/C(=O)Nc2ccc(C)cc2N)ccc1OCC(=O)Nc1cc(Br)cc(C(F)(F)F)c1
71.4 µM				COc1cc(/C=C/C(=O)Nc2ccc(C)cc2N)ccc1OCC(=O)Nc1cc(C(F)(F)F)cc(C(F)(F)F)c1
66.6 µM				COc1cc(/C=C/C(=O)Nc2ccc(C)cc2N)ccc1OCC(=O)Nc1cccc(F)c1
10.8 µM				COc1ccc(NC(=O)COc2ccc(/C=C/C(=O)NO)cc2OC)cc1
49.6 µM				COc1cc(/C=C/C(=O)Nc2ccccc2N)ccc1OCC(=O)Nc1cccc(C(F)(F)F)c1
10.3 µM	83.4 µM	> 100 µM	72.1 µM	COc1cc(/C=C/C(=O)Nc2ccccc2N)ccc1OCC(=O)Nc1ccc(Cl)c(Cl)c1
15.1 µM				COc1cc(/C=C/C(=O)Nc2ccc(C)cc2N)ccc1OCC(=O)Nc1cccc(C(F)(F)F)c1
8.95 µM	48.5 µM	> 100 µM	> 100 µM	COc1ccc(NC(=O)COc2ccc(/C=C/C(=O)Nc3ccccc3N)cc2OC)cc1
12.8 µM				COc1cc(/C=C/C(=O)Nc2ccccc2N)ccc1OCC(=O)Nc1ccc(Br)cc1
10.5 µM				COc1cc(/C=C/C(=O)NO)ccc1OCC(=O)Nc1cc(C(F)(F)F)cc(C(F)(F)F)c1
118 µM				COc1ccc(NC(=O)COc2ccc(/C=C/C(=O)Nc3ccc(C)cc3N)cc2OC)cc1
